Measurements: ChEMBL document CHEMBL5346873, “Strategic modification of low-activity natural antimicrobial peptides confers antibacterial potential in vitro and in vivo” (Eur J Med Chem, 2023)

Tests used:
Klebsiella pneumoniae [1] = test: Antibacterial activity against NDM Klebsiella pneumoniae incubated for 16 to 20 hrs; type: functional; details: time 16-20 hrs
Klebsiella aerogenes [2] = test: Bactericidal activity against Enterobacter aerogenes incubated overnight; type: functional
Aeromonas hydrophila [3] = test: Antibacterial activity against Aeromonas hydrophila incubated for 16 to 20 hrs; type: functional; details: time 16-20 hrs
Vibrio anguillarum [4] = test: Antibacterial activity against Listonella anguillarum incubated for 16 to 20 hrs; type: functional; details: time 16-20 hrs
Streptococcus agalactiae [5] = test: Antibacterial activity against Streptococcus agalactiae incubated for 16 to 20 hrs; type: functional; details: time 16-20 hrs
Klebsiella pneumoniae [6] = test: Bactericidal activity against NDM Klebsiella pneumoniae incubated overnight; type: functional
Vibrio vulnificus [7] = test: Antibacterial activity against Vibrio vulnificus V3 incubated for 16 to 20 hrs; type: functional; details: time 16-20 hrs
[8] = system: Staphylococcus haemolyticus; test: Antibacterial activity against Staphylococcus haemolyticus incubated for 16 to 20 hrs; type: functional; details: time 16-20 hrs
Acinetobacter baumannii = test: Antibacterial activity against Acinetobacter baumannii; type: functional
Candida tropicalis [9] = test: Fungicidal activity against Candida tropicalis incubated overnight; type: functional
Enterococcus faecium [10] = test: Antibacterial activity against Enterococcus faecium incubated for 16 to 20 hrs; type: functional; details: time 16-20 hrs
Enterococcus faecalis [11] = test: Antibacterial activity against Enterococcus faecalis incubated for 16 to 20 hrs; type: functional; details: time 16-20 hrs
Streptococcus agalactiae [12] = test: Bactericidal activity against Streptococcus agalactiae incubated overnight; type: functional
Klebsiella oxytoca [13] = test: Antibacterial activity against Klebsiella oxytoca incubated for 16 to 20 hrs; type: functional; details: time 16-20 hrs
Nakaseomyces glabratus [14] = test: Antifungal activity against Candida glabrata incubated for 16 to 20 hrs; type: functional; details: time 16-20 hrs
Vibrio harveyi [15] = test: Bactericidal activity against Vibrio harveyi incubated overnight; type: functional
Edwardsiella tarda [16] = test: Antibacterial activity against Edwardsiella tarda incubated for 16 to 20 hrs; type: functional; details: time 16-20 hrs
Vibrio alginolyticus [17] = test: Bactericidal activity against Vibrio alginolyticus incubated overnight; type: functional
[18] = system: Staphylococcus haemolyticus; test: Bactericidal activity against Staphylococcus haemolyticus incubated overnight; type: functional
Klebsiella oxytoca [19] = test: Bactericidal activity against Klebsiella oxytoca incubated overnight; type: functional
Pseudomonas aeruginosa = test: Antibacterial activity against Pseudomonas aeruginosa incubated for 16 to 20 hrs; type: functional; details: time 16-20 hrs
Vibrio vulnificus [20] = test: Bactericidal activity against Vibrio vulnificus 204 incubated overnight; type: functional
Streptococcus iniae [21] = test: Antibacterial activity against Streptococcus iniae incubated for 16 to 20 hrs; type: functional; details: time 16-20 hrs
Klebsiella aerogenes [22] = test: Antibacterial activity against Enterobacter aerogenes incubated for 16 to 20 hrs; type: functional; details: time 16-20 hrs
Vibrio alginolyticus [23] = test: Antibacterial activity against Vibrio alginolyticus incubated for 16 to 20 hrs; type: functional; details: time 16-20 hrs
Vibrio anguillarum [24] = test: Bactericidal activity against Listonella anguillarum incubated overnight; type: functional
Aeromonas hydrophila [25] = test: Bactericidal activity against Aeromonas hydrophila incubated overnight; type: functional
Salmonella typhimurium [26] = test: Bactericidal activity against Salmonella typhimurium incubated overnight; type: functional, Salmonella enterica subsp. enterica serovar Typhimurium; details: Salmonella enterica
Enterococcus faecium [27] = test: Bactericidal activity against Enterococcus faecium incubated overnight; type: functional
Vibrio harveyi [28] = test: Antibacterial activity against Vibrio harveyi incubated for 16 to 20 hrs; type: functional; details: time 16-20 hrs
Vibrio vulnificus [29] = test: Antibacterial activity against Vibrio vulnificus 204 assessed as induction of resistance development by measuring fold increase in MIC measured after 15 passages; type: functional
Vibrio vulnificus [30] = test: Antibacterial activity against Vibrio vulnificus V1 incubated for 16 to 20 hrs; type: functional; details: time 16-20 hrs
Vibrio vulnificus [31] = test: Bactericidal activity against Vibrio vulnificus V2 incubated overnight; type: functional
Vibrio vulnificus [32] = test: Bactericidal activity against Vibrio vulnificus V3 incubated overnight; type: functional
Candida tropicalis [33] = test: Antifungal activity against Candida tropicalis incubated for 16 to 20 hrs; type: functional; details: time 16-20 hrs
Salmonella enterica [34] = test: Antibacterial activity against Salmonella enterica incubated for 16 to 20 hrs; type: functional; details: time 16-20 hrs
Vibrio vulnificus [35] = test: Bactericidal activity against Vibrio vulnificus V1 incubated overnight; type: functional
Streptococcus iniae [36] = test: Bactericidal activity against Streptococcus iniae incubated overnight; type: functional
Escherichia coli [37] = test: Antibacterial activity against Escherichia coli incubated for 16 to 20 hrs; type: functional; details: time 16-20 hrs
Salmonella enterica [38] = test: Bactericidal activity against Salmonella enterica incubated overnight; type: functional
Nakaseomyces glabratus [39] = test: Fungicidal activity against Candida glabrata incubated overnight; type: functional
Escherichia coli [40] = test: Bactericidal activity against Escherichia coli incubated overnight; type: functional
Edwardsiella tarda [41] = test: Bactericidal activity against Edwardsiella tarda incubated overnight; type: functional
Vibrio vulnificus [42] = test: Antibacterial activity against Vibrio vulnificus V2 incubated for 16 to 20 hrs; type: functional; details: time 16-20 hrs
Salmonella typhimurium [43] = test: Antibacterial activity against Salmonella typhimurium incubated for 16 to 20 hrs; type: functional, Salmonella enterica subsp. enterica serovar Typhimurium; details: Salmonella enterica; time 16-20 hrs
Enterococcus faecalis [44] = test: Bactericidal activity against Enterococcus faecalis incubated overnight; type: functional
Vibrio vulnificus [45] = test: Antibacterial activity against Vibrio vulnificus 204 incubated for 16 to 20 hrs; type: functional; details: time 16-20 hrs
Vibrio vulnificus [46] = test: Antibacterial activity against Vibrio vulnificus infected in BALB/c mouse wound infection model assessed as survival at 0.048 ug per animal administered 12 hrs post infection and measured for 14 days; type: functional; details: dose 0.048 µg; time 14 day

## C[C@H]1c2cccc(O)c2C(=O)C2=C(O)[C@]3(O)C(=O)C(C(N)=O)=C(O)[C@@H](N(C)C)[C@@H]3[C@@H](O)[C@@H]21.O [DOXYCYCLINE]
Klebsiella pneumoniae [1]
  MIC: 25 µg/mL
Klebsiella aerogenes [2]
  MBC: 6.25 µg/mL
Aeromonas hydrophila [3]
  MIC: < 1.56 µg/mL
Vibrio anguillarum [4]
  MIC: < 1.56 µg/mL
Streptococcus agalactiae [5]
  MIC: < 1.56 µg/mL
Klebsiella pneumoniae [6]
  MBC: 100 µg/mL
Vibrio vulnificus [7]
  MIC: < 1.56 µg/mL
[8]
  MIC: < 1.56 µg/mL
Acinetobacter baumannii
  MIC: 0.048 µg/mL
Candida tropicalis [9]
  MFC: > 100 µg/mL
Enterococcus faecium [10]
  MIC: < 1.56 µg/mL
Enterococcus faecalis [11]
  MIC: 6.25 µg/mL
Streptococcus agalactiae [12]
  MBC: < 1.56 µg/mL
Klebsiella oxytoca [13]
  MIC: 3.12 µg/mL
Nakaseomyces glabratus [14]
  MIC: > 100 µg/mL
Vibrio harveyi [15]
  MBC: 12.5 µg/mL
Edwardsiella tarda [16]
  MIC: < 1.56 µg/mL
Vibrio alginolyticus [17]
  MBC: 12.5 µg/mL
[18]
  MBC: < 1.56 µg/mL
Klebsiella oxytoca [19]
  MBC: 25 µg/mL
Pseudomonas aeruginosa
  MIC: 6.25 µg/mL
Vibrio vulnificus [20]
  MBC: < 1.56 µg/mL
Streptococcus iniae [21]
  MIC: < 1.56 µg/mL
Klebsiella aerogenes [22]
  MIC: 1.56 µg/mL
Vibrio alginolyticus [23]
  MIC: < 1.56 µg/mL
Vibrio anguillarum [24]
  MBC: 50 µg/mL
Aeromonas hydrophila [25]
  MBC: 12.5 µg/mL
Salmonella typhimurium [26]
  MBC: 50 µg/mL
Enterococcus faecium [27]
  MBC: < 1.56 µg/mL
Vibrio harveyi [28]
  MIC: < 1.56 µg/mL
Vibrio vulnificus [29]
  fold change (FC): 128
Vibrio vulnificus [30]
  MIC: < 1.56 µg/mL
Vibrio vulnificus [31]
  MBC: < 1.56 µg/mL
Vibrio vulnificus [32]
  MBC: < 1.56 µg/mL
Candida tropicalis [33]
  MIC: > 100 µg/mL
Salmonella enterica [34]
  MIC: < 1.56 µg/mL
Vibrio vulnificus [35]
  MBC: < 1.56 µg/mL
Streptococcus iniae [36]
  MBC: < 1.56 µg/mL
Escherichia coli [37]
  MIC: < 1.56 µg/mL
Salmonella enterica [38]
  MBC: 25 µg/mL
Nakaseomyces glabratus [39]
  MFC: > 100 µg/mL
Escherichia coli [40]
  MBC: 50 µg/mL
Edwardsiella tarda [41]
  MBC: < 1.56 µg/mL
Vibrio vulnificus [42]
  MIC: < 1.56 µg/mL
Salmonella typhimurium [43]
  MIC: < 1.56 µg/mL
Enterococcus faecalis [44]
  MBC: 6.25 µg/mL
Vibrio vulnificus [45]
  MIC: < 1.56 µg/mL
Vibrio vulnificus [46]
  Activity: 25%
